Measured values taken from paper PMC4706618, “Comparison of bactericidal and cytotoxic activities of trichogin analogs” (Data in Brief, 2015).
Values after ≈ are worked out from the molar mass of the structure shown. Where two headings read alike, the source gives them in different places. Non-standard residues stand in square brackets, D forms with d. Residues, ends and D or L forms follow the SMILES beside them. *: point of attachment. Leu(ol) = CC(C)C[C@H](N)CO; Octanoyl = CCCCCCCC(=O)*; Aib = CC(C)(N)C(=O)O

How the values were obtained:
[1] = test system: S. aureus, ATCC BAA-44 (methicillin-resistant strain); assay type: cell-based, Staphylococcus aureus; settings: after 24 h at 37 °C, broth microdilution in LB, 5×10^5 CFU/ml; ±SE, N≥4; peptide dose range 0–64 µM
Method: (§1) E. coli ATCC 25922, the methicillin-resistant strain of S. aureus, ATCC BAA-44, P. aeruginosa ATCC 25668 and S. epidermidis ATCC 700565 was a kind gift of Prof. Elena Reddi (Dept. of Biology, University of Padova, Italy). Cultures were maintained in Luria Bertani (LB) agar. MICs (Minimal inhibitory concentrations) of the peptides were determined using the broth microdilution method. Two-fold serial dilutions of each peptide, from 1 to 64 μM, were prepared in LB and 50 μl per well were arranged in sterile 96-well plates (Falcon). Then, an aliquot of bacterial cell suspension was added to each well, at a final concentration of 5×10^5 CFU/ml.

[2] = test system: S. epidermidis ATCC 700565; assay type: cell-based, Staphylococcus epidermidis; settings: after 24 h at 37 °C, broth microdilution in LB, 5×10^5 CFU/ml; ±SE, N≥4; peptide dose range 0–64 µM
Method: as §1

P. aeruginosa ATCC 25668 [3] = assay type: cell-based, Pseudomonas aeruginosa; settings: after 24 h at 37 °C, broth microdilution in LB, 5×10^5 CFU/ml; ±SE, N≥4; peptide dose range 0–64 µM
Method: as §1

E. coli ATCC 25922 [4] = assay type: cell-based, Escherichia coli; settings: after 24 h at 37 °C, broth microdilution in LB, 5×10^5 CFU/ml; ±SE, N≥4; peptide dose range 0–64 µM
Method: as §1

[5] = test system: Gram^− and Gram^+ bacteria; assay: Antibacterial activity, all strains taken together; assay type: cell-based; settings: additional U at position 6 or U1 replaced with L; in words
Method: as §1

[6] = test system: human cells (lymphocytes, PMNs, monocytes, HL60, HeLa, A431, A549, CCD34Lu); assay: Cytotoxicity on human cells, MTS reduction and LDH release; assay type: cell-based; settings: 24 h, MTS/LDH EC50, all tested cells; in words
Method: To monitor the possible differential cytocidal effect of trichogin and its analogs on human cells (healthy and cancer cells, non-leukocytes and leukocytes), we incubated the peptides with (i) primary human leukocytes (lymphocytes, PMNs and monocytes), freshly isolated from blood of healthy donors (ii) the monocytes-like HL60 cell line from human myeloid leukemia, and (iii) three tumor-derived non-leukocyte cells lines: HeLa ([…]), A431 (human epidermoid carcinoma) and A549 (human lung carcinoma) and the in vitro stabilized line CCD34Lu (from human normal lung).
HeLa, A431 and CCD34-Lu cells were maintained in DMEM medium (Gibco), A549 in F12 medium (Gibco) and HL60 in RPMI medium (Gibco), supplemented with 10% FCS (Euroclone) and antibiotics (penicillin and streptomycin, 100 U/ml, Invitrogen) at 37 °C in a humidified atmosphere containing 5% (v/v) CO2; cells were split every 2–3 days. Human monocytes, polymorphonuclear leukocytes (PMNs) and lymphocytes were purified from buffy coats of healthy donors, kindly provided by the Centro Immunotrasfusionale, Hospital of Padova. Briefly, for monocyte purification, peripheral blood mononuclear cells (PBMC) were isolated from buffy coats of healthy donors by density gradient centrifugation on Ficoll-Paque Plus (GE Health care), which density is optimized for the isolation of mononuclear cells. Separate monocyte and T-cell fractions were obtained from PBMCs by Percoll density gradient centrifugation (GE Health care); residual lymphocytes were removed by incubation in 2% fetal calf serum (FCS) RPMI at 37 °C and subsequently washed to eliminate non adherent cells. Unless otherwise specified, cells were kept at 37 °C in a humidified atmosphere containing 5% (v/v) CO2 in RPMI-1640 supplemented with 10% FCS. For PMNs purification, the pellet of cells obtained after the centrifugation on Ficoll gradient was subjected to dextran erythrocytes precipitation; residual erythrocytes were removed by hypotonic lysis in 155 mM NH4Cl, 10 mM KHCO3, and […] Na2EDTA at pH 7.4 and cells were cultured in RPMI medium, supplemented with 10% FCS. For lymphocytes preparation, buffy coats were incubated with 50 μl/ml of Rosette Sep® Human T Cell Enrichment Cocktail (StemCell Technologies). Blood was then centrifuged over a Ficoll gradient and cells were cultured in RPMI medium, supplemented with 10% FCS.
(§2) Twenty-four hours before the experiment, A431, HeLa, A549 and CC34-Lu cells were detached by means of trypsin treatment (Gibco), counted and seeded onto a 96 wells/plate (8×10^3 cells/well, Falcon). After purification, monocytes were seeded onto a 96 wells/plate (2×10^6/well) and left to adhere to the plastic; then cells were immediately treated with stimuli. PMNs and lymphocytes (2×10^6 cells/well) and HL60 cells (40×10^3) were seeded onto cell plates and subsequently treated. Different peptides were diluted in culture medium (from 20 μM to 1 μM) and added to the cells. As a […] control cells were treated with medium without stimuli. Twenty-four hours after treatment, the cell supernatant was collected for subsequent assay (LDH assay) and cells were tested using a CellTiter 96® AQueous One Solution Reagent (Promega). Plates were read with an ELISA reader (Amersham Biosciences) at 492 nm. Data were expressed as % of absorbance value compared to untreated cells (assumed as 100% viable). Alternatively, the EC50 (the concentration of drug where 50% of cells died) was calculated for each peptide and each kind of tested cell.
(§3) 50 μl of the cell supernatant was tested with a CytoTox 96® Non-Radioactive Cytotoxicity Assay kit (Promega). EC50 (the concentration of drug that induced the lysis of 50% of the total cell number) was calculated for each peptide and each kind of tested cell.

HeLa cells [7] = assay: Cytotoxicity on HeLa cells, MTS/LDH; assay type: cell-based, human; settings: 24 h, in words
Method: as §2, §3

HeLa cells [8] = assay: Propidium iodide / Annexin V assay (FACS); assay type: cell-based, human; settings: 18 h treatment, up to 20 μM, in words
Method: HeLa cells were seeded on 24-wells plastic trays (Falcon) the day before the experiment, while HL60 were used directly. Cells were treated for 18 h with different trichogin analogs (up to 20 μM); then they were washed with PBS, detached with trypsin (in the case of HeLa cells), centrifuged at 200g for 5 min, suspended in 50 μl of incubation buffer and incubated for 15 min at 37 °C with 2 μl of Annexin-V-Fluos (Roche). Cells were finally diluted in 250 μl of the incubation buffer and 15 μl of Propidium Iodide (Sigma) were added to each sample just before the acquisition with FACSCanto® (Beckton Dickinson). Percentage of healthy (Annexin V^−/PI^−), apoptotic (Annexin V^+/PI^−), oncotic (Annexin V^−/PI^+) and late apoptotic/abortive oncotic (Annexin V^+/PI^+) cells of the total (10^6 cells) was calculated using FACSDiva Software.

Erythrocytes = assay: Hemolytic activity (hemoglobin release); assay type: cell-based; settings: erythrocytes treated 24 h, hemoglobin release read spectrophotometrically; in words
Method: Fig. 7 Hemolytic activity of trichogin and its analogs. Erythrocytes were treated for 24 h with different concentration of peptides, centrifuged and hemoglobin release was measured spectrophotometrically. Hemolysis is expressed as percentage relative to positive control (erythrocytes treated with distilled water). § Indicates data from for comparison.

[9] = test system: S. aureus, ATCC BAA-44 (methicillin-resistant strain); settings: after 24 h; ±SE; § data for comparison; ref [6]; cited from earlier work
Method: Table 2 MICs (μM±SE; N≥4; peptides dose range: 0–64 µM) after 24 h against two Gram^+ and two Gram^− bacterial strains (§ indicates data from for comparison). | column: S. aureus

[10] = test system: S. epidermidis ATCC 700565; settings: after 24 h; ±SE; § data for comparison; ref [6]; cited from earlier work
Method: Table 2 MICs (μM±SE; N≥4; peptides dose range: 0–64 µM) after 24 h against two Gram^+ and two Gram^− bacterial strains (§ indicates data from for comparison). | column: S. epidermis

P. aeruginosa ATCC 25668 [11] = settings: after 24 h; ±SE; § data for comparison; ref [6]; cited from earlier work
Method: Table 2 MICs (μM±SE; N≥4; peptides dose range: 0–64 µM) after 24 h against two Gram^+ and two Gram^− bacterial strains (§ indicates data from for comparison). | column: P. aeruginosa

E. coli ATCC 25922 [12] = settings: after 24 h; ±SE; § data for comparison; ref [6]; cited from earlier work
Method: Table 2 MICs (μM±SE; N≥4; peptides dose range: 0–64 µM) after 24 h against two Gram^+ and two Gram^− bacterial strains (§ indicates data from for comparison). | column: E. coli

[13] = test system: Gram^− and Gram^+ bacteria; settings: both Gram^− and Gram^+ bacteria; ref Tavano et al., 2015 [6]; cited from earlier work
From the text: (§4) Peptaibiotics are a group of membrane active peptides of fungal origin. They typically contain α-aminoisobutyric acid (Aib; 1-letter code, U) and other non-coded residues (Toniolo and Brückner, 2009; Neumann et al., 2015; Benedett et al., 1982), [2], [3] stabilizing their helical structure. Peptaibols are peptaibiotics carrying a 1, 2-aminoalcohol at the C-terminus. When a fatty acid chain (of 8–10 carbon atoms) is present at their N-terminus, they are called lipopeptaibols (Toniolo et al., 2001; Degenkolb et al., 2003), [5]. We found (Tavano et al., 2015) that the lipo ...

[14] = test system: human cells (lymphocytes, PMNs, monocytes, HL60, HeLa, A431, A549, CCD34Lu); settings: tumor and healthy human cells; ref Tavano et al., 2015 [6]; read-out: EC50 for killing tumor and healthy human cells; cited from earlier work
From the text: as §4

| Compound | MIC S. aureus [1] | MIC S. epidermis [2] | MIC P. aeruginosa (P. aeruginosa ATCC 25668 [3]) | MIC E. coli (E. coli ATCC 25922 [4]) | antibacterial activity compared with the K-containing analogs [5] | cytotoxicity compared with trichogin or the corresponding analog [6] | toxicity to HeLa cells compared with trichogin (HeLa cells [7]) | type and extent of HeLa cell death, PI/Annexin V labeling (HeLa cells [8]) | hemolytic effect (Erythrocytes) | MIC S. aureus [9] | MIC S. epidermis [10] | MIC P. aeruginosa (P. aeruginosa ATCC 25668 [11]) | MIC E. coli (E. coli ATCC 25922 [12]) | antibacterial effects (none up to the stated concentration) [13] | EC50 [14] |
| --- | --- | --- | --- | --- | --- | --- | --- | --- | --- | --- | --- | --- | --- | --- | --- |
| CCCCCCCC(=O)NC(C)(C)C(=O)NCC(=O)N[C@@H](CC(C)C)C(=O)NC(C)(C)C(=O)N[C@@H](CCCCN)C(=O)NC(C)(C)C(=O)N[C@@H](CC(C)C)C(=O)NC(C)(C)C(=O)NCC(=O)N[C@H](C(=O)N[C@H](CO)CC(C)C)[C@@H](C)CC [K5U6] (Octanoyl-[Aib]GL[Aib]K[Aib]L[Aib]GI[Leu(ol)]) | 3.8 ± 2.4 µM (≈ 4.43 µg/mL) | 2.4 ± 0.9 µM (≈ 2.8 µg/mL) | >64 µM | >64 µM | failed to increase the antibacterial activity | increased cytotoxicity | significantly more effective in killing HeLa cells | predominantly a late apoptotic phenotype but also significant necrosis | – | – | – | – | – | – | – |
| CCCCCCCC(=O)N[C@@H](CC(C)C)C(=O)NCC(=O)N[C@@H](CC(C)C)C(=O)NC(C)(C)C(=O)NCC(=O)NCC(=O)N[C@@H](CC(C)C)C(=O)NC(C)(C)C(=O)NCC(=O)N[C@H](C(=O)N[C@H](CO)CC(C)C)[C@@H](C)CC [L1] (Octanoyl-LGL[Aib]GGL[Aib]GI[Leu(ol)]) | 32 ± 0 µM (≈ 35 µg/mL) | >64 µM | >64 µM | >64 µM | – | weakly affected | – | as effective as trichogin in killing HeLa cells | – | – | – | – | – | – | – |
| Oc-UGLUGGLUGILol [GA IV, trichogin GA IV, lipopeptaibol trichogin, Oc-UGLUGGLUGILol] | – | – | – | – | – | – | – | – | weakly hemolytic | >64 µM | >64 µM | >64 µM | >64 µM | > 64 µM | 4 to 5 µM |
